Measured values as given in ChEMBL document CHEMBL5137024, “Discovery of novel coumarin-indole derivatives as tubulin polymerization inhibitors with potent anti-gastric cancer activities” (Eur J Med Chem, 2022).
Active and inactive are the calls of the source.

What was measured:
[1] = tested on: HGC-27; experiment: Inhibition of ERK signalling pathway in human HGC-27 cells assessed as downregulation of ERK1/2 phosphorylation at 10 to 30 nM incubated for 48 hrs; assay type: cell-based; settings: dose 10-30 nM
[2] = tested on: MGC-803; experiment: Upregulation of phosphorylated Histone H3 expression in human MGC-803 cells at 5 to 15 nM incubated for 48 hrs; assay type: functional, cell-based; settings: dose 5-15 nM
[3] = tested on: HGC-27; experiment: Induction of apoptosis in human HGC-27 cells assessed as increase in cleavage caspase 3 level; assay type: functional, cell-based; settings: dose 10-30 nM, DDE = dose-dependent effect
[4] = target: T1, Tubulin (Homo sapiens) (UniProt P68371+Q9H4B7+P0DPH7+P68366+Q13509+Q71U36+P04350+Q3ZCM7+P07437+P68363+Q9BQE3+Q6PEY2+Q13885+Q9BVA1+Q9BUF5); experiment: Disruption of microtubule network in human HGC-27 cells assessed as irregular form of filamentous microtubule structures at 10 to 30 nM measured after 48 hrs by DAPI staining based fluorescence microscopic analysis; assay type: cell-based; settings: dose 10-30 nM
[5] = tested on: Mus musculus; experiment: Upregulation of cleaved caspase -3 expression in tumor tissue of BALB/c nude mouse xenografted with human MGC-803 cells at 15 to 30 mg/kg, ip administered once daily for 21 days by Western blotting analysis; assay type: functional, organism-based; settings: dose 15-30 mg/kg, time 21.0 day
[6] = tested on: HGC-27; experiment: Inhibition of ERK signalling pathway in human HGC-27 cells assessed as reduction in downstream substrate MSK1 phosphorylation at 10 to 30 nM incubated for 48 hrs; assay type: cell-based; settings: dose 10-30 nM
[7] = Induction of mitochondria mediated intrinsic apoptosis in human MGC-803 cells assessed as early apoptotic cells at 10 nM measured after 48 hrs by flow cytometry analysis (Rvb= 1.6%); assay type: functional
[8] = tested on: HGC-27; experiment: Inhibition of p38 signalling pathway in human HGC-27 cells assessed as reduction in MKK3/6 phosphorylation at 10 to 30 nM incubated for 48 hrs; assay type: cell-based; settings: dose 10-30 nM
[9] = tested on: MGC-803; experiment: Induction of apoptosis in human MGC-803 cells assessed as decrease in cIAP-1 level; assay type: functional, cell-based; settings: dose 5-15 nM, DDE = dose-dependent effect
[10] = tested on: MGC-803; experiment: Induction of apoptosis in human MGC-803 cells assessed as upregulation of DR5 level; assay type: functional, cell-based; settings: dose 5-15 nM, DDE = dose-dependent effect
[11] = tested on: MGC-803; experiment: Inhibition of cell migration in human MGC-803 cells assessed as reduction in wound healing rate at 5 to 15 nM incubated for 24 hrs; assay type: functional, cell-based; settings: dose 5-15 nM
[12] = tested on: HGC-27; experiment: Inhibition of p38 signalling pathway in human HGC-27 cells assessed as reduction in downstream substrate MAPKAPK2 phosphorylation at 10 to 30 nM incubated for 48 hrs; assay type: cell-based; settings: dose 10-30 nM
[13] = tested on: HGC-27; experiment: Downregulation of FoxO3a expression in human HGC-27 cells incubated for 48 hrs; assay type: functional, cell-based; settings: dose 10-30 nM, DDE = dose-dependent effect
[14] = tested on: MGC-803; experiment: Induction of apoptosis in human MGC-803 cells assessed as cell rounding at 5 to 15 nM incubated for 48 hrs by bright field imaging analysis; assay type: functional, cell-based; settings: dose 5-15 nM
[15] = tested on: MGC-803; experiment: Induction of apoptosis in human MGC-803 cells assessed as increase in cleavage substrate PARP level; assay type: functional, cell-based; settings: dose 5-15 nM, DDE = dose-dependent effect
[16] = tested on: ECa-109 cell line; experiment: Antiproliferative activity against human EC109 cells assessed as reduction in cell viability incubated for 48 hrs by MTT assay; assay type: functional, cell-based; settings: ECa-109, 48 h
[17] = target: T1, Tubulin (Homo sapiens); experiment: Disruption of microtubule network in human HGC-27 cells assessed as incomplete mitosis at 10 to 30 nM measured after 48 hrs by DAPI staining based fluorescence microscopic analysis; assay type: cell-based; settings: dose 10-30 nM
[18] = tested on: HGC-27; experiment: Antiinvasive activity against human HGC-27 cells assessed as reduction in number of cells in membrane incubated for 48 hrs by trans well assay; assay type: functional, cell-based; settings: dose 10-30 nM, DDE = dose-dependent effect
[19] = tested on: MGC-803; experiment: Induction of apoptosis in human MGC-803 cells assessed as decrease in cell density at 5 to 15 nM incubated for 48 hrs by bright field imaging analysis; assay type: functional, cell-based; settings: dose 5-15 nM
[20] = tested on: HGC-27; experiment: Inhibition of p38 signalling pathway in human HGC-27 cells assessed as reduction in p38 phosphorylation at 10 to 30 nM incubated for 48 hrs; assay type: cell-based; settings: dose 10-30 nM
[21] = tested on: MGC-803; experiment: Antiproliferative activity against human MGC-803 cells assessed as inhibition of cell growth at 5 to 15 nM incubated for 60 hrs; assay type: functional, cell-based; settings: dose 5-15 nM
[22] = tested on: HGC-27; experiment: Downregulation of phosphorylated ATF-2 expression in human HGC-27 cells incubated for 48 hrs; assay type: functional, cell-based; settings: dose 10-30 nM, DDE = dose-dependent effect
[23] = tested on: Mus musculus; experiment: Upregulation of PARP expression in tumor tissue of BALB/c nude mouse xenografted with human MGC-803 cells at 15 to 30 mg/kg, ip administered once daily for 21 days by Western blotting analysis; assay type: functional, organism-based; settings: dose 15-30 mg/kg, time 21.0 day
[24] = target: Tubulin (Sus scrofa) (UniProt P02554+P02550); experiment: Inhibition of porcine brain tubulin polymerization assessed as reduction in tubulin polymerization level by measuring relative fluorescence intensity at 3 umol/l by fluorescence based assay; assay type: tissue-based; settings: dose 3.0 µmol/L
[25] = tested on: HGC-27; experiment: Downregulation of cyclin B1 expression in human HGC-27 cells at 10 to 30 nM incubated for 48 hrs; assay type: functional, cell-based; settings: dose 10-30 nM
[26] = tested on: HCT-116; experiment: cells; settings: Homo sapiens, HCT-116, 48 h
[27] = tested on: MGC-803; experiment: Downregulation of Wee1 expression in human MGC-803 cells at 5 to 15 nM incubated for 48 hrs; assay type: functional, cell-based; settings: dose 5-15 nM
[28] = tested on: HGC-27; experiment: Induction of apoptosis in human HGC-27 cells assessed as decrease in Mcl-1 level; assay type: functional, cell-based; settings: dose 10-30 nM, DDE = dose-dependent effect
[29] = tested on: Mus musculus; experiment: Downregulation of ERK1/2 phosphorylation in tumor tissue of BALB/c nude mouse xenografted with human MGC-803 cells at 15 to 30 mg/kg, ip administered once daily for 21 days by Western blotting analysis; assay type: functional, organism-based; settings: dose 15-30 mg/kg, time 21.0 day
[30] = tested on: HGC-27; experiment: Induction of apoptosis in human HGC-27 cells assessed as nuclear concentration at 10 to 30 nM incubated for 48 hrs by DAPI staining based analysis; assay type: functional, cell-based; settings: dose 10-30 nM
[31] = tested on: HGC-27; experiment: Induction of apoptosis in human HGC-27 cells assessed as increase in cleavage caspase 7 level; assay type: functional, cell-based; settings: dose 10-30 nM, DDE = dose-dependent effect
[32] = tested on: MGC-803; experiment: Inhibition of p38 signalling pathway in human MGC-803 cells assessed as reduction in MKK3/6 phosphorylation at 5 to 15 nM incubated for 48 hrs; assay type: cell-based; settings: dose 5-15 nM
[33] = tested on: MGC-803; experiment: Induction of apoptosis in human MGC-803 cells assessed as nuclear fragmentation at 5 to 15 nM incubated for 48 hrs by DAPI staining based analysis; assay type: functional, cell-based; settings: dose 5-15 nM
[34] = Induction of mitochondria mediated intrinsic apoptosis in human HGC-27 cells assessed as early apoptotic cells at 20 nM measured after 48 hrs by flow cytometry analysis (Rvb= 6.4%); assay type: functional
[35] = tested on: MGC-803; experiment: Downregulation of phosphorylated Elk-1 expression in human MGC-803 cells incubated for 48 hrs; assay type: functional, cell-based; settings: dose 5-15 nM, DDE = dose-dependent effect
[36] = tested on: MGC-803; experiment: Antiinvasive activity against human MGC-803 cells assessed as reduction in number of cells in membrane incubated for 48 hrs by trans well assay; assay type: functional, cell-based; settings: dose 5-15 nM, DDE = dose-dependent effect
[37] = tested on: HGC-27; experiment: Induction of apoptosis in human HGC-27 cells assessed as increase in total apoptotic cells at 30 nM incubated for 48 hrs by annexin V FITC and propidium iodide staining based flow cytometry analysis (reference value: 7.2%); assay type: functional
[38] = Induction of mitochondria mediated intrinsic apoptosis in human HGC-27 cells assessed as late apoptotic cells at 10 nM measured after 48 hrs by flow cytometry analysis (Rvb= 93.6%); assay type: functional

Sequence of Tubulin (Sus scrofa) (P02550 whole entry, looked up): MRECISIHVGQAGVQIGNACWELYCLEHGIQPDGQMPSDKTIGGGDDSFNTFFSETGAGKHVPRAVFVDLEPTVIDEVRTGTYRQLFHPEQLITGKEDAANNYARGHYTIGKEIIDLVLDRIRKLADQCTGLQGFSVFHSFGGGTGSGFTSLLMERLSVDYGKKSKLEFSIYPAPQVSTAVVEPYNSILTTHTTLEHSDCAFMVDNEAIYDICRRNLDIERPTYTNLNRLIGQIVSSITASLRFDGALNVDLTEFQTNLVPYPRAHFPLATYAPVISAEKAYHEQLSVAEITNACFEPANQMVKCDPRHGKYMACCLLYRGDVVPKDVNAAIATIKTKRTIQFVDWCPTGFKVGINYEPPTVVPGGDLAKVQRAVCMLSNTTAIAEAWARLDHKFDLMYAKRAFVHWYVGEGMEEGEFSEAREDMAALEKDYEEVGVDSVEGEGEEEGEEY
Sequence of Tubulin (Sus scrofa) (P02554 whole entry, looked up): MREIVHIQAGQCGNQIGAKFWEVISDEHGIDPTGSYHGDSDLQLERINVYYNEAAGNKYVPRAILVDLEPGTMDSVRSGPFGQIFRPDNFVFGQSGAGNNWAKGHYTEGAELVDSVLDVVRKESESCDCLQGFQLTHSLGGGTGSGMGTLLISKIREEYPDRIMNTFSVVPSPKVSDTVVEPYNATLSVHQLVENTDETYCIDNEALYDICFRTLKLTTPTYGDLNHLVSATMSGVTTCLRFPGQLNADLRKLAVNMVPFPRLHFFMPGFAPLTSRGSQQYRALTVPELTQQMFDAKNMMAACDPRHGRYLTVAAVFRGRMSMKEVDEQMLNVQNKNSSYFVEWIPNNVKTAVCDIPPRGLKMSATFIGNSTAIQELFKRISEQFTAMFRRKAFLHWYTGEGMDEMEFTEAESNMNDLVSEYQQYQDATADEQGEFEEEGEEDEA

CN(c1ccc2c(ccn2C)c1)c1cc(=O)oc2ccccc12
active: inhibition [1] | Activity [2] | Activity [3] Dde | Activity [4] | Activity [5] | inhibition [6] | inhibition [8] | Activity [9] Dde | Activity [10] Dde | inhibition [11] | inhibition [12] | Activity [13] Dde | Activity [14] | Activity [15] Dde | Activity [17] | Activity [18] Dde | Activity [19] | inhibition [20] | inhibition [21] | Activity [22] Dde | Activity [23] | inhibition [24] | Activity [25] | Activity [27] | Activity [28] Dde | Activity [29] | Activity [30] | Activity [31] Dde | inhibition [32] | Activity [33] | Activity [35] Dde | Activity [36] Dde
33 nM: IC50 [26]
47.3%: Activity [37]
7.2%: Activity [7]
33.8 nM: IC50 [16]
21.6%: Activity [34]
91.6%: Activity [38]
